Results on 2 compounds are retold here after patent US12662505B2, “Steviol glycoside solubility enhancers” (CARGILL, INCORPORATED, priority 2019, dated 2026).

The format of data set [1] is physicochemical. The procedure: Clear solutions without precipitates are considered soluble. Unless indicated otherwise herein, the term “solubility” refers to “equilibrium solubility.”
Upon heating to 80° C. for 15 minutes, rebaudioside D has an equilibrium solubility of 0.08% for at least four days at room temperature.

The conditions of data set [2]: sensory evaluation; cited from earlier work.

As to `C=C1C[C@@]23CC[C@H]4[C@@](C)(CCC[C@@]4(C)C(=O)O[C@@H]4O[C@H](CO)[C@@H](O)[C@H](O[C@@H]5O[C@H](CO)[C@@H](O)[C@H](O)[C@H]5O)[C@H]4O[C@@H]4O[C@H](CO)[C@@H](O)[C@H](O)[C@H]4O)[C@@H]2CC[C@]1(O[C@@H]1O[C@H](CO)[C@@H](O)[C@H](O[C@@H]2O[C@H](CO)[C@@H](O)[C@H](O)[C@H]2O)[C@H]1O[C@@H]1O[C@H](CO)[C@@H](O)[C@H](O)[C@H]1O)C3` [Rebaudioside M], in data set [1], the equilibrium solubility entry was “about 0.2%” and the instantaneous solubility result was “about 0.13%”.
As for `C=C1C[C@@]23CC[C@H]4[C@@](C)(CCC[C@@]4(C)C(=O)O[C@@H]4O[C@H](CO)[C@@H](O)[C@H](O)[C@H]4O[C@@H]4O[C@H](CO)[C@@H](O)[C@H](O)[C@H]4O)[C@@H]2CC[C@]1(O[C@@H]1O[C@H](CO)[C@@H](O)[C@H](O[C@@H]2O[C@H](CO)[C@@H](O)[C@H](O)[C@H]2O)[C@H]1O[C@@H]1O[C@H](CO)[C@@H](O)[C@H](O)[C@H]1O)C3` [Rebaudioside D], in data set [1], the equilibrium solubility came out at 0.08% and the instantaneous solubility entry was “less than 0.08%”. Besides, in data set [2], the “sweetness relative to sucrose” value is listed as 200-220 times sweeter than sucrose.
